Each structure is given as a SMILES string.

33 compounds from patent US12492193B2, “Pyrazole derivatives for the treatment of cystic fibrosis” (Fondazione Istituto Italiano Di Tecnologia, priority 2017, dated 2025) can be followed below.

In the assay the target is T1, mutant CFTR (Homo sapiens, UniProt P13569, DEL508-508).
T1 construct: expressed in transfected cells
T1 sequence (P13569 with tags, fused parts or gaps DEL508-508): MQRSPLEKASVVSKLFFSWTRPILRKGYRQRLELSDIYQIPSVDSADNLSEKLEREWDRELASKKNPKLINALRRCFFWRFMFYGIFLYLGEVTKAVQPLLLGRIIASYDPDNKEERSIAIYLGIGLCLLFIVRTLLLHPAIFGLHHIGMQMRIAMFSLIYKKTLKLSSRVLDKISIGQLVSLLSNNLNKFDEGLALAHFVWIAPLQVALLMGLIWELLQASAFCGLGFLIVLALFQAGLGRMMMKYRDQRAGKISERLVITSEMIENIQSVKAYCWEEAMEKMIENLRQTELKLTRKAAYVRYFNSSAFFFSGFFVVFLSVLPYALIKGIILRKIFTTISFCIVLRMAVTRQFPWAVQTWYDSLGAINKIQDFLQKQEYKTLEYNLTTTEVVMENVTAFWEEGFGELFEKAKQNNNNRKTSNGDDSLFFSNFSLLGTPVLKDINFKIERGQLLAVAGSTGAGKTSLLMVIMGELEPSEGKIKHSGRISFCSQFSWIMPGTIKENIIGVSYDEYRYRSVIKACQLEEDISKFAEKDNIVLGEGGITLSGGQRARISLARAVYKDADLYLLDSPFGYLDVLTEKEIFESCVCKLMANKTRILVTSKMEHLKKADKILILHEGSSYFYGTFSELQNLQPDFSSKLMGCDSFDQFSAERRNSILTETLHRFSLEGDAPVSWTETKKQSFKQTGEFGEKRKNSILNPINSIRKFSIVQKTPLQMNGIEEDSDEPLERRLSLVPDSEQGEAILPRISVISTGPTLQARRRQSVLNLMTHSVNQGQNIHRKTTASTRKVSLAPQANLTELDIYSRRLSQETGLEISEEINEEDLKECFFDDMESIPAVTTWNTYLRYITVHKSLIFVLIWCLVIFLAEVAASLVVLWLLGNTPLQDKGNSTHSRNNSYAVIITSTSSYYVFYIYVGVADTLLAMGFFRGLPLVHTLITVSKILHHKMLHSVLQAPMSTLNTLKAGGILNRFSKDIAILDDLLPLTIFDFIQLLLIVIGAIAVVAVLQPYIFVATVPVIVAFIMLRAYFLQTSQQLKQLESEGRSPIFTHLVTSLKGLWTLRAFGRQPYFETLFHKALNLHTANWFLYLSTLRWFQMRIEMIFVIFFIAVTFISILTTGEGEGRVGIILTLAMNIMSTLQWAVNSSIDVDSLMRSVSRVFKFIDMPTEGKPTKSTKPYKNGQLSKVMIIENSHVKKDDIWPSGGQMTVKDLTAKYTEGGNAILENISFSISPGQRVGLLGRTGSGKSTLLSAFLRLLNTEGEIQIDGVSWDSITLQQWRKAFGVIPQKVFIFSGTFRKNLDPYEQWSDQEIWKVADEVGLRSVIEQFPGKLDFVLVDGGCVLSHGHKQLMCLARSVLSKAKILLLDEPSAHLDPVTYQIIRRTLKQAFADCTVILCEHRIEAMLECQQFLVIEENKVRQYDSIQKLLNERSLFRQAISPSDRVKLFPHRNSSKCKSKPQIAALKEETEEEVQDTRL
The experiment in a line: Fluorescence (HS-YFP) assay for CFTR activity, corrector assay. The class given is cell-based. As to conditions: CFBE41o- and FRT cells with stable expression of mutant CFTR, 24 h compound treatment. In outline: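 Corrector activity: 24 h compound treatment of HS-YFP/mutant-CFTR CFBE41o- or FRT cells, followed by 30 min forskolin 20 μM + genistein 50 μM at 37° C. Iodide influx (100 mM final) was tracked as fluorescence quenching, with dF/dt extrapolated by exponential fitting; EC50 values derived.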
Usually EC50 stands for the concentration at which the effect is half-maximal. In the case of `Cc1cc(C(F)(F)F)nn1-c1cccc(C(=O)N(C)c2ccc3c(c2)OCO3)c1` [compound 091, N-(1,3-Benzodioxol-5-yl)-N-methyl-3-[5-methyl-3-(trifluoromethyl)pyrazol-1-yl]benzamide], the EC50 lay within 1000 to 2000 nM.

As to `CCc1nn(-c2cccc(C(=O)N(C)c3ccc4c(c3)OCO4)c2)c(CC)c1Cl` [compound 092, N-(1,3-Benzodioxol-5-yl)-3-(4-chloro-3,5-diethyl-pyrazol-1-yl)-N-methyl-benzamide], the EC50 is less than 1000 nM.

Regarding `CCc1cc(CC)n(-c2cccc(C(=O)N(C)c3ccc4c(c3)OCO4)c2)n1` [compound 093, N-(1,3-Benzodioxol-5-yl)-3-(3,5-diethylpyrazol-1-yl)-N-methyl-benzamide], the EC50 lay in the range of 1000 to 2000 nM.

Consider `Cc1nn(-c2cccc(C(=O)N(C)c3ccc4c(c3)OCO4)c2)c(C2CC2)c1Cl` [compound 094, N-(1,3-Benzodioxol-5-yl)-3-(4-chloro-5-cyclopropyl-3-methyl-pyrazol-1-yl)-N-methyl-benzamide], for which the EC50 was less than 1000 nM.

Turning to `Cc1c(Cl)c(C(F)(F)F)nn1-c1cccc(C(=O)N(C)c2ccc3c(c2)OC(F)(F)O3)c1` [compound 095, 3-[4-Chloro-5-methyl-3-(trifluoromethyl)pyrazol-1-yl]-N-(2,2-difluoro-1,3-benzodioxol-5-yl)-N-methyl-benzamide], the EC50 is less than 1000 nM.

For `Cc1c(Cl)c(C(F)(F)F)nn1-c1cccc(C(=O)N(C)c2ccc3c(c2)OCCO3)c1` [compound 096, 3-[4-Chloro-5-methyl-3-(trifluoromethyl)pyrazol-1-yl]-N-(2,3-dihydro-1,4-benzodioxin-6-yl)-N-methyl-benzamide], the EC50 is less than 1000 nM.

Take `Cc1cc(C2CC2)n(-c2cccc(C(=O)N(C)c3ccc4c(c3)OCO4)c2)n1` [compound 097, N-(1,3-Benzodioxol-5-yl)-3-(5-cyclopropyl-3-methyl-pyrazol-1-yl)-N-methyl-benzamide]: the EC50 was less than 1000 nM.

For the compound `CC(C)Cc1c(Cl)c(C(F)(F)F)nn1-c1cccc(C(=O)N(C)c2ccc3c(c2)OCO3)c1` [compound 101, N-(1,3-Benzodioxol-5-yl)-3-[4-chloro-5-isobutyl-3-(trifluoromethyl)pyrazol-1-yl]-N-methyl-benzamide], the EC50 is less than 1000 nM.

As to `Cc1nn(-c2cccc(C(=O)N(C)c3ccc4c(c3)OCO4)c2)c(C(F)(F)F)c1Cl` [compound 102, N-(1,3-Benzodioxol-5-yl)-3-[4-chloro-3-methyl-5-(trifluoromethyl)pyrazol-1-yl]-N-methyl-benzamide], the EC50 was less than 1000 nM.

`CCOC(=O)c1c(Cl)c(C)nn1-c1cccc(C(=O)N(C)c2ccc3c(c2)OCCO3)c1` [compound 103, Ethyl 4-chloro-2-[3-[2,3-dihydro-1,4-benzodioxin-6-yl (methyl)carbamoyl]phenyl]-5-methyl-pyrazole-3-carboxylate]: the EC50 was less than 1000 nM.

For the compound `Cc1c(C2CC2)c(C(F)(F)F)nn1-c1cccc(C(=O)N(C)c2ccc3c(c2)OCO3)c1` [compound 104, N-(1,3-Benzodioxol-5-yl)-3-[4-cyclopropyl-5-methyl-3-(trifluoromethyl)pyrazol-1-yl]-N-methyl-benzamide], the EC50 was less than 1000 nM.

`Cc1nn(-c2cccc(C(=O)N(C)c3ccc4c(c3)OCO4)c2)c(CO)c1Cl` [compound 105, N-(1,3-benzodioxol-5-yl)-3-[4-chloro-5-(hydroxylmethyl)-3-methyl-pyrazol-1-yl]-N-methyl-benzamide]: the EC50 is 1000 to 2000 nM.

As to `Cc1c(Cl)c(C(F)(F)F)nn1-c1cccc(C(=O)N(C)c2cc3c(cc2Cl)OCO3)c1` [compound 106, N-(6-Chloro-1,3-benzodioxol-5-yl)-3-[4-chloro-5-methyl-3-(trifluoromethyl)pyrazol-1-yl]-N-methyl-benzamide], the EC50 was less than 1000 nM.

Regarding `COCc1c(Cl)c(C)nn1-c1cccc(C(=O)N(C)c2ccc3c(c2)OCO3)c1` [compound 107, N-(1,3-benzodioxol-5-yl)-3-[4-chloro-5-(methoxymethyl)-3-methyl-pyrazol-1-yl]-N-methyl-benzamide], the EC50 is less than 1000 nM.

With `CC(C)Cc1c(Cl)c(C(F)(F)F)nn1-c1cccc(C(=O)N(C)c2cc3c(cc2Cl)OCO3)c1` [compound 110, N-(6-Chloro-1,3-benzodioxol-5-yl)-3-[4-chloro-5-isobutyl-3-(trifluoromethyl)pyrazol-1-yl]-N-methyl-benzamide], the EC50 was less than 1000 nM.

In the case of `CN(C(=O)c1cccc(-n2nc(C(F)(F)F)c(Cl)c2C2CC2)c1)c1ccc2c(c1)OCO2` [compound 111, N-(1,3-Benzodioxol-5-yl)-3-[4-chloro-5-cyclopropyl-3-(trifluoromethyl)pyrazol-1-yl]-N-methyl-benzamide], the EC50 was less than 1000 nM.

`Cc1nn(-c2cccc(C(=O)N(C)c3ccc4c(c3)OCO4)c2)c(C=O)c1Cl` [compound 112, N-(1,3-benzodioxol-5-yl)-3-(4-chloro-5-formyl-3-methyl-pyrazol-1-yl)-N-methyl-benzamide]: the EC50 was less than 1000 nM.

In the case of `Cc1nn(-c2cccc(C(=O)N(C)c3ccc4c(c3)OCO4)c2)c(C(C)(C)O)c1Cl` [compound 115, N-(1,3-Benzodioxol-5-yl)-3-[4-chloro-5-(1-hydroxy-1-methyl-ethyl)-3-methyl-pyrazol-1-yl]-N-methyl-benzamide], the EC50 was in the range of 1000 to 2000 nM.

On to `CC(=O)c1c(Cl)c(C)nn1-c1cccc(C(=O)N(C)c2ccc3c(c2)OCO3)c1` [compound 116, 3-(5-Acetyl-4-chloro-3-methyl-pyrazol-1-yl)-N-(1,3-benzodioxol-5-yl)-N-methyl-benzamide], for which the EC50 was less than 1000 nM.

Consider `Cc1nn(-c2cccc(C(=O)N(C)c3ccc4c(c3)OCO4)c2)c(COc2ccccc2)c1Cl` [compound 118, N-(1,3-Benzodioxol-5-yl)-3-[4-chloro-3-methyl-5-(phenoxymethyl)pyrazol-1-yl]-N-methyl-benzamide], for which the EC50 was less than 1000 nM.

Take `Cc1nn(-c2cccc(C(=O)N(C)c3ccc4c(c3)OCO4)c2)c(C(=O)c2ccccc2)c1Cl` [compound 119, N-(1,3-benzodioxol-5-yl)-3-(5-benzoyl-4-chloro-3-methyl-pyrazol-1-yl)-N-methyl-benzamide]: the EC50 was less than 1000 nM.

Take `Cc1nc2ccc(NC(=O)c3cccc(-n4nc(C(F)(F)F)c(Cl)c4C)c3)cc2o1` [compound 120, 3-[4-Chloro-5-methyl-3-(trifluoromethyl)pyrazol-1-yl]-N-(2-methyl-1,3-benzoxazol-6-yl)benzamide]: the concentration giving a half-maximal response (EC50) was 1000 to 2000 nM.

Take `Cc1c(Cl)c(C(F)(F)F)nn1-c1cccc(C(=O)N(C)c2ccc3cn(C)nc3c2)c1` [compound 122, 3-[4-Chloro-5-methyl-3-(trifluoromethyl)pyrazol-1-yl]-N-methyl-N-(2-methylindazol-6-yl)benzamide]: the EC50 was in the range of 1000 to 2000 nM.

Regarding `Cc1nc2cc(Cl)c(N(C)C(=O)c3cccc(-n4nc(C(F)(F)F)c(Cl)c4C)c3)cc2o1` [compound 123, N-(5-Chloro-2-methyl-1,3-benzoxazol-6-yl)-3-[4-chloro-5-methyl-3-(trifluoromethyl)pyrazol-1-yl]-N-methyl-benzamide], the EC50 is less than 1000 nM.

In the case of `CN(C(=O)c1cccc(-n2nc(C(F)(F)F)c(Cl)c2-c2ccccc2)c1)c1ccc2c(c1)OCO2` [compound 124, N-(1,3-Benzodioxol-5-yl)-3-[4-chloro-5-phenyl-3-(trifluoromethyl)pyrazol-1-yl]-N-methyl-benzamide], the EC50 is less than 1000 nM.

`Cc1c(F)c(C(F)(F)F)nn1-c1cccc(C(=O)N(C)c2ccc3c(c2)OCO3)c1` [compound 126, N-(1,3-Benzodioxol-5-yl)-3-[4-fluoro-5-methyl-3-(trifluoromethyl)pyrazol-1-yl]-N-methyl-benzamide]: the EC50 was less than 1000 nM.

As for `Cc1c(Cl)c(C(F)(F)F)nn1-c1cccc(C(=O)Nc2cc3c(cc2Cl)OCO3)c1` [compound 127, N-(6-Chloro-1,3-benzodioxol-5-yl)-3-[4-chloro-5-methyl-3-(trifluoromethyl)pyrazol-1-yl]benzamide], the EC50 was greater than 2000 nM.

Regarding `Cc1c(Cl)c(C(F)(F)F)nn1-c1cccc(C(=O)Nc2ccc3c(c2)OCO3)c1` [compound 128, N-(1,3-Benzodioxol-5-yl)-3-[4-chloro-5-methyl-3-(trifluoromethyl)pyrazol-1-yl]benzamide], the EC50 was greater than 2000 nM.

With `Cc1nnc(-c2c(Cl)c(C)nn2-c2cccc(C(=O)N(C)c3ccc4c(c3)OCO4)c2)o1` [compound 129, N-(1,3-Benzodioxol-5-yl)-3-[4-chloro-3-methyl-5-(5-methyl-1,3,4-oxadiazol-2-yl)pyrazol-1-yl]-N-methyl-benzamide], the EC50 is less than 1000 nM.

As for `CCOC(=O)c1cc(C(F)(F)F)nn1-c1cccc(C(=O)N(C)c2ccc3c(c2)OCO3)c1` [compound 130, Ethyl 2-[3-[1,3-benzodioxol-5-yl(methyl)carbamoyl]phenyl]-5-(trifluoromethyl)pyrazole-3-carboxylate], the EC50 was less than 1000 nM.

Consider `CC(C)Oc1cc(C(F)(F)F)nn1-c1cccc(C(=O)N(C)c2ccc3c(c2)OCO3)c1` [compound 131, N-(1,3-benzodioxol-5-yl)-3-[5-isopropoxy-3-(trifluoromethyl)pyrazol-1-yl]-N-methyl-benzamide], for which the EC50 is less than 1000 nM.

As to `CN(C(=O)c1cccc(-n2nc(C(F)(F)F)cc2OCc2ccccc2)c1)c1ccc2c(c1)OCO2` [compound 132, N-(1,3-benzodioxol-5-yl)-3-[5-benzyloxy-3-(trifluoromethyl)pyrazol-1-yl]-N-methyl-benzamide], the EC50 was less than 1000 nM.

Turning to `CN(C(=O)c1cccc(-n2nc(C(F)(F)F)cc2OCCc2ccccc2)c1)c1ccc2c(c1)OCO2` [compound 133, N-(1,3-Benzodioxol-5-yl)-N-methyl-3-[5-phenethyloxy-3-(trifluoromethyl)pyrazol-1-yl]benzamide], the EC50 was less than 1000 nM.
